Test results published in ChEMBL document CHEMBL1201862, “PubChem BioAssay data set” (2004).
Calls of active or inactive are those of the source.

Experiments:
Nonstructural protein 1 = Nonstructural protein 1 (Influenza A virus, UniProt Q194T2); type: functional, Influenza A virus (A/California/07/2009(H1N1))
[1] = target: T1, Rac GTPase-activating protein 1 (Homo sapiens, UniProt Q9H0H5); test: blockers of MgcRacGAP-driven Rac1 GTP hydrolysis – biochemical, ADP Hunter fluorescence, primary and confirmatory, confirmation (AID 624330); type: functional
T1 sequence (Q9H0H5 whole entry): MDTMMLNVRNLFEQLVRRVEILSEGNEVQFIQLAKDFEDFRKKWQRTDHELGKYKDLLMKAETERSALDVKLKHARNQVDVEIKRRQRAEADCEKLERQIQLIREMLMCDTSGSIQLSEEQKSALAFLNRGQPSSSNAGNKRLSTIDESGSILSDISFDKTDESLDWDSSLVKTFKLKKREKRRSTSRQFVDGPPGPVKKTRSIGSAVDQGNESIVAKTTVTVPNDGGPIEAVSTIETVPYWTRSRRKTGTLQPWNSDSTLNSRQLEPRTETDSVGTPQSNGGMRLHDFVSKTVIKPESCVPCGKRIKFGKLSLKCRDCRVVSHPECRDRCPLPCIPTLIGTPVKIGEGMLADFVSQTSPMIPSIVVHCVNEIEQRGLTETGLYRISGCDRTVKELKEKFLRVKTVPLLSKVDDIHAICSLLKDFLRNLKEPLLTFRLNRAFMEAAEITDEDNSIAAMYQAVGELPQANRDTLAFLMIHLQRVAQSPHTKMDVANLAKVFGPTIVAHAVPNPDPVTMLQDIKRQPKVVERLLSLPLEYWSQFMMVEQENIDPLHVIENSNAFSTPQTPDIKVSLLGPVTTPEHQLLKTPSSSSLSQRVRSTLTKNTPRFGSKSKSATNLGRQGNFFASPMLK

[2] = target: T2, Mannose-6-phosphate isomerase (Homo sapiens, UniProt P34949); test: MPI enzyme activity inhibition – biochemical, fluorescence intensity, coupled assay, primary screen (AID 1209)
T2 sequence (P34949 whole entry): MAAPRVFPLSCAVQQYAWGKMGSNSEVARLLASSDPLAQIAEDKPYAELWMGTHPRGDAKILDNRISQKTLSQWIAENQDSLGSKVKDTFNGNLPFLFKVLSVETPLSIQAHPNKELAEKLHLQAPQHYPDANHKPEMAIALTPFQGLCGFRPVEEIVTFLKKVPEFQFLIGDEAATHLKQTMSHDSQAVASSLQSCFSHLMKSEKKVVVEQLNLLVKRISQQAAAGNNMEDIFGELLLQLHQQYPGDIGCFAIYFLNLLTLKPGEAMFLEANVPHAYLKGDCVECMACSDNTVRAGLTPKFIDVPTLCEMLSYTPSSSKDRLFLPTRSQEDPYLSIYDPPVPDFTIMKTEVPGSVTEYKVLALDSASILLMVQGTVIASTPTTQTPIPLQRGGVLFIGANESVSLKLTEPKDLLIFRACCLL

Ion channel NompC = Ion channel NompC (Danio rerio, UniProt Q7T1G6); test: Fluorescence counterscreen assay for TRPML3 agonists: dose response cell-based high-throughput screening assay to identify agonists of the transient receptor potential channel N1 (TRPN1). [Related pubchem assays: 1526, 1424, 1448 ]; type: functional
Vero [3] = test: cells; type: functional; conditions: Chlorocebus sabaeus
Mucolipin-3 = Mucolipin-3 (Homo sapiens, UniProt Q8TDD5); test: Dose response cell-based high-throughput screening assay for agonists of the transient receptor potential channel ML3 (TRPML3). [Related pubchem assays: 1526, 1424, 1448 ]; type: functional
[4] = system: Streptococcus sp. 'group A'; test: Streptococcus pyogenes SK(-)GAS viability under kanamycin – luminescence, BacTiterGlo, confirmation, counter-screen for streptokinase expression inhibitor project, dose response (AID 1900); type: functional, organism-based
[5] = target: T3, Short transient receptor potential channel 4 (Mus musculus, UniProt Q9QUQ5); test: calcium entry via TRPC4 opening agents – cell-based, HEK293 TRPC4/mu-opioid, Fluo-4 calcium, dose response (AID 434937); type: functional
T3 sequence (Q9QUQ5 whole entry): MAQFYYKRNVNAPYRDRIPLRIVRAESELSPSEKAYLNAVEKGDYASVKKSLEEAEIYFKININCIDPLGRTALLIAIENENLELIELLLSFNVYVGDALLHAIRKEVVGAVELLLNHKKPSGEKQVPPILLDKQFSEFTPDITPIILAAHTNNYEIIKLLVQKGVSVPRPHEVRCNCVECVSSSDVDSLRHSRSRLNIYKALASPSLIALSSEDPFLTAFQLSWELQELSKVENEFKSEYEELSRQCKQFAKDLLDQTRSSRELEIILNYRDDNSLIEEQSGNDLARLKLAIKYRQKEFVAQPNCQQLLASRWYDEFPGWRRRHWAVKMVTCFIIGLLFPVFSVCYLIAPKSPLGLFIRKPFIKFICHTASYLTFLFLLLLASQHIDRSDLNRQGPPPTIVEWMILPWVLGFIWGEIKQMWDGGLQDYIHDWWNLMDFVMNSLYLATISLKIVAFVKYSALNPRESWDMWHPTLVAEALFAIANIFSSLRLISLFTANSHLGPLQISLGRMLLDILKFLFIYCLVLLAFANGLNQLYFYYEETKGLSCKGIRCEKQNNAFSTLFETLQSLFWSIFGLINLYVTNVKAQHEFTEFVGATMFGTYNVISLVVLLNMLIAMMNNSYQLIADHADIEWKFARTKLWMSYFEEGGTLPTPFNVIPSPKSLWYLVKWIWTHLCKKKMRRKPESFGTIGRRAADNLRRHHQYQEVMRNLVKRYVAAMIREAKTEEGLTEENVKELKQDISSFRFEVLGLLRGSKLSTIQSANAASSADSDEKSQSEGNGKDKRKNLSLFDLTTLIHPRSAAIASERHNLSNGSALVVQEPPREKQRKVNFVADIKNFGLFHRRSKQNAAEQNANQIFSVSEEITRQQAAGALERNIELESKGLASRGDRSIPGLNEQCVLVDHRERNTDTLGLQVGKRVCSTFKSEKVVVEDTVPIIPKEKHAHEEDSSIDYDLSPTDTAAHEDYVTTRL

Streptococcus = test: GAS UMAA2166 growth inhibition – luminescence, BacTiterGlo, counter-screen for streptokinase expression inhibitor project, dose response (AID 1915); type: functional, organism-based;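 further: potency for reduction of bacterial viability or growth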
[6] = target: Lysosomal acid glucosylceramidase (Homo sapiens, UniProt P04062); test: Dose response cell-based high throughput screening assay to identify enhancers of beta-glucosidase activity. [Related pubchem assays: 784 ]; type: functional
[7] = M. tuberculosis H37Rv growth inhibitors, H37Rv strain (AID 1626); type: functional
Aminopeptidase N = target: T4, Aminopeptidase N (Plasmodium falciparum FcB1/Columbia, UniProt O96935); test: malaria alanyl aminopeptidase activity blockers – biochemical, fluorogenic H-Leu-NHMec substrate, 1536-well (AID 1445); design: species or system Plasmodium falciparum 3D7, 3D7
T4 sequence (O96935 whole entry): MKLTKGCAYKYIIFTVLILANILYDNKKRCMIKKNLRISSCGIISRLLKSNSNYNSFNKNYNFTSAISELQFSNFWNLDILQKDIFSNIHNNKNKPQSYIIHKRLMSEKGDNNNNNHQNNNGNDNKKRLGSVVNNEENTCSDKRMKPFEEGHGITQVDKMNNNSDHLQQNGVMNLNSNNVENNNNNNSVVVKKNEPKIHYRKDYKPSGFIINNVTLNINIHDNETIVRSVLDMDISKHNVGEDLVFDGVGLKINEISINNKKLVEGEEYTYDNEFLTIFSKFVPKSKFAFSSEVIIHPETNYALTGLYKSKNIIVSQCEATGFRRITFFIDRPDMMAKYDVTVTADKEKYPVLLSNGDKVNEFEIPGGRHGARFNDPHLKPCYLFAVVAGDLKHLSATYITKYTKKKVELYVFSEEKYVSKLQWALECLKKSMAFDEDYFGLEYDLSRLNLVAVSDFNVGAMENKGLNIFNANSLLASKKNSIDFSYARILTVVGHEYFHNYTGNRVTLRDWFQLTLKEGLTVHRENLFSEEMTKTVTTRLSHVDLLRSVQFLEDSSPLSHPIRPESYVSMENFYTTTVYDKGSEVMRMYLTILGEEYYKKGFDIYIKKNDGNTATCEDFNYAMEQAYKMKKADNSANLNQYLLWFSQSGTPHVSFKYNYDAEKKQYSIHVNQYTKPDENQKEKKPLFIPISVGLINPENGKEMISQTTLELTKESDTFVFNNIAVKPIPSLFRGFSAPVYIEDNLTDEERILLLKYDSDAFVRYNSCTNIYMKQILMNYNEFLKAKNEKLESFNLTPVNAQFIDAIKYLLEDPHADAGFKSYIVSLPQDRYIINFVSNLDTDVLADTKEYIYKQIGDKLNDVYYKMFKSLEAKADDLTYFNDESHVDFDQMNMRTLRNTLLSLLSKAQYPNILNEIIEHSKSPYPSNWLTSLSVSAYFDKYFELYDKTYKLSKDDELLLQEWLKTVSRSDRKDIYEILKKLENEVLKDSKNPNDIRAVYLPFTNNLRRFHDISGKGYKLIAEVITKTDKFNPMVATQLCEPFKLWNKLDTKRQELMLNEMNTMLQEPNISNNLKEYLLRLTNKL

Cytochrome P450 3A4 = Cytochrome P450 3A4 (Homo sapiens, UniProt P08684); conditions: Potency;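 further: confirmatory qHTS run detecting inhibitors and substrates of CYP3A4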
Cytochrome P450 2C9 = Cytochrome P450 2C9 (Homo sapiens, UniProt P11712); conditions: Potency
Streptokinase A = target: T5, Streptokinase A (Streptococcus pyogenes serotype M1, UniProt P10520); test: viability-normalized secreted streptokinase activity reduction – plasminogen activation absorbance, OD405, dose response (AID 1914); type: functional, Streptococcus pyogenes M1 GAS;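 further: secreted streptokinase activity via plasminogen activation per viability signal from cell pellet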
T5 sequence (P10520 whole entry): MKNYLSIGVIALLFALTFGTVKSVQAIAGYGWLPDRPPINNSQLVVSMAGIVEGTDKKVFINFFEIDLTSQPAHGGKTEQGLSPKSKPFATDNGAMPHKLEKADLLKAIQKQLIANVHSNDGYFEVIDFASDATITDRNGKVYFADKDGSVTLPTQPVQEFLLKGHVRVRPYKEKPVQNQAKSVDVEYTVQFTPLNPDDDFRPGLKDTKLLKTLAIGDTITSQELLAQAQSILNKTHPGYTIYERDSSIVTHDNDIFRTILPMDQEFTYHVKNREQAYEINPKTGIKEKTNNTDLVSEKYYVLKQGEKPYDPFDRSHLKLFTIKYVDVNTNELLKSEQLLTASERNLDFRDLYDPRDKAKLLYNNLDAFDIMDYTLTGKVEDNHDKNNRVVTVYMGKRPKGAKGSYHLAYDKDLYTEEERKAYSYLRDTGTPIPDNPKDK

Vero [8] = test: viability of Vero cells under compound – cytotoxicity control for flavivirus capping enzyme inhibitors (AID 588742); type: functional; conditions: Chlorocebus sabaeus
[9] = target: T2, Mannose-6-phosphate isomerase; test: MPI inhibition at elevated mannose 6-phosphate – biochemical, fluorescence intensity, high mannose 6-phosphate, primary screen (AID 1220)
[10] = NIH3T3 cell viability loss – ATP luminescence, mouse fibroblasts, counter-screen, dose response (AID 2010); type: functional, cell-based;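 further: cells exposed to compound for about 90 hours before reading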
[11] = A Cell Based Secondary Assay To Explore Cytotoxicity of Compounds that Sensitize Mycobacterium Tuberculosis to Beta-Lactam Antibiotics.; type: functional
[12] = Trypanosoma cruzi growth suppression in host cells – NIH3T3 host cells, beta-gal luminescence, confirmation (AID 2044); type: functional, cell-based;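 further: intracellular parasites grown in NIH/3T3 mouse fibroblasts as host cells; luminescent beta-galactosidase reporter signal from transgenic T. cruzi replicating inside host cells; inhibitors lower the luminescence signal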

Chain of Ion channel NompC (Q7T1G6 whole entry): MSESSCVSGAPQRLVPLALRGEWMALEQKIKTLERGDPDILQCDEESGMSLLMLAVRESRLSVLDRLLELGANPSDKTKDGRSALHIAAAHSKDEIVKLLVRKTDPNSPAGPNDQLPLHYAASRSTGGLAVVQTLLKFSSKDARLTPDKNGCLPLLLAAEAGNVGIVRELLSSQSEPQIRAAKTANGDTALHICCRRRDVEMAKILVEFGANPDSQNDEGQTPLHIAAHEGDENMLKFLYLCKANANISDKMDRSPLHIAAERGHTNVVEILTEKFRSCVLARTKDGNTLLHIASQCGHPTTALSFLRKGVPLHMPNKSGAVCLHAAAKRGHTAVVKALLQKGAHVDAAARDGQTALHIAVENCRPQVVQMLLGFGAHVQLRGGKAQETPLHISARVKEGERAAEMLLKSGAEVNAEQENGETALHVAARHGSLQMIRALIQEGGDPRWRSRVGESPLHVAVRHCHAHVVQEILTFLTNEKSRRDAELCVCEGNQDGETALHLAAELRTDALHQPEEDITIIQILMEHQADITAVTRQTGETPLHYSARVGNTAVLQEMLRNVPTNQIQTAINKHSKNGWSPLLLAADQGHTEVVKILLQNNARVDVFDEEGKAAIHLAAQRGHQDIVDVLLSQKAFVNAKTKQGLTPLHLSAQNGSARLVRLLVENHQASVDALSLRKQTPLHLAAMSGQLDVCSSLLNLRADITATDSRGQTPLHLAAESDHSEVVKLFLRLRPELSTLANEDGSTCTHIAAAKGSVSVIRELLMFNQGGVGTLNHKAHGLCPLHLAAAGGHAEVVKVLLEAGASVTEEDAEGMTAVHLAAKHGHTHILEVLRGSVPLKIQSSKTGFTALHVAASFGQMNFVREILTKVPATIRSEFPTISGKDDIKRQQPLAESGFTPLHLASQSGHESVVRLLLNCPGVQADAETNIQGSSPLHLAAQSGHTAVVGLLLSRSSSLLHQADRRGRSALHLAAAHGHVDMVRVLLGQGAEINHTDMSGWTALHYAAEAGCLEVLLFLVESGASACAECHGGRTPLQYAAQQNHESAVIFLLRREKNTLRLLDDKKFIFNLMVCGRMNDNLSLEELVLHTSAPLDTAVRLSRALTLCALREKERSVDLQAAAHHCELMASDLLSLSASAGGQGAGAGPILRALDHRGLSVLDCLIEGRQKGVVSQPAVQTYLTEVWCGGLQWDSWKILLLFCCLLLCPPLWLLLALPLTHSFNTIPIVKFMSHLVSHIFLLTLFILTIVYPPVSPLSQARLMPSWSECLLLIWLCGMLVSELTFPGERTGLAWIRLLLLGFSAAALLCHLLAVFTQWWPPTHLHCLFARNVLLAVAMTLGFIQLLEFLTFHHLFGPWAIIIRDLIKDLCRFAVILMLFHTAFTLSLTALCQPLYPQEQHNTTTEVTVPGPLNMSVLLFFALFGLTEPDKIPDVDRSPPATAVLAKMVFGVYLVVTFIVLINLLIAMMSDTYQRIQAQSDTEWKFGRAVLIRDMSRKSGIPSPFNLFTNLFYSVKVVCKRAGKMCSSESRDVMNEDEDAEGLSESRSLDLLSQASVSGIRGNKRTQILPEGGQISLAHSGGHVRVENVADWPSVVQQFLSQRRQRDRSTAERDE
Chain of Mucolipin-3 (Q8TDD5 whole entry): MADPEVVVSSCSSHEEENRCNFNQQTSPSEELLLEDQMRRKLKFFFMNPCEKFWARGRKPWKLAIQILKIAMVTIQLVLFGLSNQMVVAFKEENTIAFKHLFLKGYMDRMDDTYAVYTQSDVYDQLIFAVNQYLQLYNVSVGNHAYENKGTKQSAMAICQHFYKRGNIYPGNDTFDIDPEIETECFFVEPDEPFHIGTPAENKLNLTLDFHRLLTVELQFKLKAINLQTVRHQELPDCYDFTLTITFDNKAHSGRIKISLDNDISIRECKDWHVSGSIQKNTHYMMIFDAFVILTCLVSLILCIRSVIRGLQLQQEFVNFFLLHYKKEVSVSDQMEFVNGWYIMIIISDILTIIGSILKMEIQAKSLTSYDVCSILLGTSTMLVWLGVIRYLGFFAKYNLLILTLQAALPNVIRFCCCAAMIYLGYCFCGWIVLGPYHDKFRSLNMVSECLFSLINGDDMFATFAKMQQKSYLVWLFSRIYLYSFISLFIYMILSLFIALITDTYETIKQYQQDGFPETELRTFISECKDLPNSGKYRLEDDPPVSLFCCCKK
Chain of Lysosomal acid glucosylceramidase (P04062 whole entry): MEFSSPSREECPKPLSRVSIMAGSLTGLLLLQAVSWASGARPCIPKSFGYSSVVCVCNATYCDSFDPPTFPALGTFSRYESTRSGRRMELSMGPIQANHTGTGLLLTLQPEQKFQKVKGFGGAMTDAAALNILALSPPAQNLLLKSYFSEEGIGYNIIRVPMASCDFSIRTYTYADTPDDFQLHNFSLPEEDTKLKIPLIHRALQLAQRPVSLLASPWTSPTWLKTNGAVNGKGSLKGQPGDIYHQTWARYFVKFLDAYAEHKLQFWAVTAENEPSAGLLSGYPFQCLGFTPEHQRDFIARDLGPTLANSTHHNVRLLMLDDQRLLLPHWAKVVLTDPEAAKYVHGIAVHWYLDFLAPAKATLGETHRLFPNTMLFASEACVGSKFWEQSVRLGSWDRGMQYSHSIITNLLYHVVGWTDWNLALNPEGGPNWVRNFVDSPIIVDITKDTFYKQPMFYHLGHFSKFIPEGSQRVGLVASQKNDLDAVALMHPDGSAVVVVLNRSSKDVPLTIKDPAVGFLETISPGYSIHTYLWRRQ
Chain of Cytochrome P450 2C9 (P11712 whole entry): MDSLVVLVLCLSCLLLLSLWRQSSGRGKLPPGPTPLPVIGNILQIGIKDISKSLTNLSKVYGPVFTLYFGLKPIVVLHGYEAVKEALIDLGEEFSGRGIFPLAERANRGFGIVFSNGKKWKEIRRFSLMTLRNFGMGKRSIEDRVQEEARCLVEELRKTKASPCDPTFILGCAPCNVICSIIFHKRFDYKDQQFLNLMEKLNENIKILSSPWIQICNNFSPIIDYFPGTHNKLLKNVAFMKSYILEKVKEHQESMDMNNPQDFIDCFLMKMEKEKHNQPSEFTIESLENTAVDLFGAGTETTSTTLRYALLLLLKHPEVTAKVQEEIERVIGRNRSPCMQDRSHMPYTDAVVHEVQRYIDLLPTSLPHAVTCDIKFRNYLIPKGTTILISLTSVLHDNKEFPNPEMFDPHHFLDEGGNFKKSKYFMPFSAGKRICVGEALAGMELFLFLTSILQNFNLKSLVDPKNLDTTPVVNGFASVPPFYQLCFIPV
Chain of Cytochrome P450 3A4 (P08684 whole entry): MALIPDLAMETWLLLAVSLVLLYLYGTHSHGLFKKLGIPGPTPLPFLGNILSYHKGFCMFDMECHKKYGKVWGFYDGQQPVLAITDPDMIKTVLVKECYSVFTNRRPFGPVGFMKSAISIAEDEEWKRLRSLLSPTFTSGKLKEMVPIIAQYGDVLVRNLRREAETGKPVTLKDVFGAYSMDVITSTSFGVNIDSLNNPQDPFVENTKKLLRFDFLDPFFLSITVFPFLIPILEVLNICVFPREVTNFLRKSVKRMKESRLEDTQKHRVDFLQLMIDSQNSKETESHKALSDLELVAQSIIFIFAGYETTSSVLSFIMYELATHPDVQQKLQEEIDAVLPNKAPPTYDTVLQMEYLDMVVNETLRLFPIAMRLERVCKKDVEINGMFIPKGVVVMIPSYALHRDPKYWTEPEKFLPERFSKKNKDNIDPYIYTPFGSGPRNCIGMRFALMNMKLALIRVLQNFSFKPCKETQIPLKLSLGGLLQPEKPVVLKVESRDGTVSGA
Chain of Nonstructural protein 1 (Q194T2 whole entry): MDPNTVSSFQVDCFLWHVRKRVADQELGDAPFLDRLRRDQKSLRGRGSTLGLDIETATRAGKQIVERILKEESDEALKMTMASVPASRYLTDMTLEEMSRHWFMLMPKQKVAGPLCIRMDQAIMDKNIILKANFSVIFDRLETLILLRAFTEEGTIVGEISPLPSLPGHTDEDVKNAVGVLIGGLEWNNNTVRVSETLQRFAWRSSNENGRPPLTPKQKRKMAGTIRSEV

## NC(=S)N/N=C/c1cccc(O)c1O
Nonstructural protein 1
  IC50: 4.5 µM (active)
[1]
  IC50: 31.5 µM (active)
[2]
  IC50: 11 µM (active)

## COc1ccc(C(=O)NC(=S)NNC(=O)c2c(-c3ccccc3)noc2C)cc1OC
Ion channel NompC
  EC50: 7.42 µM (active)
Vero [3]
  CC50: 17.2 µM (active)
Mucolipin-3
  EC50: 7.51 µM (active)
[4]
  EC50: 620 nM (active)
[5]
  EC50: 6.68 µM (active)
Streptococcus
  EC50: 7.7 µM (active)

## Cc1ccccc1NC(=O)Nc1cccs1
[6]
  EC50: > 50 µM (not active)

## CN(C)c1ncc(S(=O)(=O)c2ccccc2)c(-c2ccc(Cl)cc2Cl)n1
Ion channel NompC
  EC50: > 29.9 µM (not active)
Mucolipin-3
  EC50: 1.87 µM (active)

## N#C/C(=C(/O)CSc1nnc(Cc2cccs2)n1C1CCCCC1)c1nc2ccccc2[nH]1
[7]
  IC50: > 100 µM (active)
Aminopeptidase N
  IC50: 78.9 µM (active)

## CCOc1ccc(NC(=O)CCN2CCN(c3ccccc3)CC2)cc1
[7]
  IC50: > 100 µM (active)

## C/C=C/OC(=O)NC(c1ccccc1)[C@]1(C(C)=O)CCCC1=O (stereo partly drawn)
Cytochrome P450 3A4
  AC50: 126 nM (inconclusive)
Cytochrome P450 2C9
  AC50: 3.98 µM (inconclusive)

## Oc1c(Cl)cc(Cl)c2c1NCCC2
Streptokinase A
  EC50: > 150 µM (not active)
Vero [8]
  CC50: 34.5 µM (active)
[1]
  IC50: 31.4 µM (active)
[4]
  EC50: 5360 nM (active)
[9]
  IC50: 25.3 µM (active)
Streptococcus
  EC50: 85.5 µM (active)

## CC(C)[C@H]1C(=O)N2CCC[C@@H]2[C@]2(O)O[C@@](NC(=O)[C@H]3C=C4c5cccc6[nH]cc(c56)C[C@H]4N(C)C3)(C(C)C)C(=O)N12
Cytochrome P450 2C9
  AC50: 25.1 µM (inconclusive)

## CCOC(=O)C1CCN(C(=O)c2ccc(NC(=O)C3CCCO3)cc2)CC1 (stereo not drawn)
[6]
  EC50: > 50 µM (not active)

## COc1ccc2c(c1)c(CC(=O)Nc1ccc(C)cc1)c(C)n2C(=O)c1ccc(Cl)cc1
[10]
  EC50: > 60 µM (not active)
[11]
  CC50: > 40 µM (active)
[12]
  EC50: 1.04 µM (active)
